Data from US20240415114A1, “AGROCHEMICAL FORMULATIONS FOR MITIGATING CRYSTALLIZATION” (SYNGENTA CROP PROTECTION AG, priority 2021, published 2024).

Experiments:
[1] = Solubility of fludioxonil in various vegetable oils; assay type: physicochemical; settings: 5C, 25C and 50C, FIG. 1
Description: 0.5 g of fludioxonil technical was mixed separately with 5 g of various oils (peanut oil, castor oil, cottonseed oil, olive oil, canola oil, linseed oil, sunflower oil, safflower oil, corn oil, and soybean oil) and incubated at 3 different temperatures (5C, 25C and 50C). The mixtures were then centrifuged and the clear oil supernatant was recovered and analyzed for fludioxonil content.

[2] = Crystallization study of formulation containing fludioxonil (storage, 325 mesh sieve residue); assay type: physicochemical; settings: 2 weeks Condition 1 then 2 weeks at 25° C. or 5° C., FIG. 3
Description: A formulation containing 0.72% w/w fludioxonil, 0.72% w/w picarbutrazox, 1.43% w/w sedaxane, 4.30% w/w thiabendazole and 1.07% w/w mefenoxam was prepared with castor oil or MK 116 Wax or soybean oil as the flow aid. Castor oil loading was maintained at 10% w/w. MK 116 wax loading was maintained at 5% w/w, whereas soybean oil concentration was varied over a range of 5-12% w/w. The formulation was aliquoted into 50 g samples and placed at temperatures of 50° C., 45° C. 38° C., a freeze thaw cycle going from 50° C. to −10° C. and at 25° C. These formulations were stored for 2 weeks at the indicated conditions (Condition 1), after which they were removed and placed at 25° C. or 5° C. for 2 weeks (Condition 2). After completion of the storage regime, the formulations were diluted with 200 mL of water and poured through a 325 mesh sieve. The residue was collected and analysed for the presence of fludioxonil.

Question: Which “solubility of fludioxonil in oil” value ([1]; all other oils (peanut, cottonseed, olive, canola, linseed, sunflower, safflower, corn, soybean)) does the source give for `N#Cc1c[nH]cc1-c1cccc2c1OC(F)(F)O2` [fludioxonil] here?
Answer: essentially the same solubilities

Question: What about the “solubility of fludioxonil in oil” value ([1]; castor oil) of the same compound?
Answer: significantly improved solubility

Question: What about the “loss of fludioxonil (fludioxonil content of sieve residue)” value (from here on “loss of fludioxonil”) ([2]; MK 116 wax 5% w/w as flow aid) of the same compound?
Answer: resulted in loss of fludioxonil

Question: And the “loss of fludioxonil” value ([2]; castor oil 10% w/w as flow aid)?
Answer: did not

Question: And the “loss of fludioxonil” value ([2]; soybean oil 5-12% w/w as flow aid)?
Answer: resulted in loss of fludioxonil
